Test results reported in patent US10570080B2, “Perfume ketones” (Givaudan, S.A., priority 2015, dated 2020).
Read-outs that look alike come from different tables or passages of the source.

Columns and labels:
[1] = system: Luciferase gene under the control of the ARE-element of the gene AKR1C2 (KeratinoSens cell line); test: KeratinoSens assay for skin sensitization: luciferase gene induction; conditions: for Concentration for 1.5-fold gene induction (EC 1.5 in μM): 48 h, n.i. = no induction above threshold of 1.5; for Imax (fold maximal gene induction): 48 h incubation, 0.98 to 2000 μM, vs DMSO controls
Experimental: (§1) Sensitization is measured by the commercially-available and universally-accepted KeratinoSens™ test, which compares the potential skin sensitization risk of chemicals.
(§2) KeratinoSens cells were grown for 24 h in 96-well plates. The medium was then replaced with medium containing the test chemical and the solvent dimethylsulfoxide (DMSO) at a final level of 1%. Each compound was tested at 12 binary dilutions in the range from 0.98 to 2000 μM. Cells were incubated for 48 h with the test agents, and then luciferase activity and cytotoxicity were determined. This full procedure was repeated three times for each chemical. For each chemical in each repetition and at each concentration, the gene induction compared to DMSO controls and the wells with statistically significant induction over the threshold of 1.5 (i.e. 50% enhanced gene activity) were determined. Furthermore, the maximal fold-induction (Imax) and the EC1.5 value (concentration in μM for induction above the threshold) were calculated.
(§3) Compounds were tested using the commercial KeratinoSens™ assay for skin sensitization.

[2] = target: T1, test peptide Cor1C-420 (Ac-NKKCDLF) (Homo sapiens, UniProt Q9ULV4, I423F); test: Peptide reactivity assay for skin sensitization (similar to DPRA), LC-MS; type: biochemical; conditions: 37° C., 1 mM test chemical, 0.1 mM peptide
T1 construct: purchased Genscript Inc., Piscataway, N.J., USA
Experimental: A second method to determine allergenic potential of chemicals is the DPRA direct peptide assay (OECD TG 442c). It is based on the fact that allergenic chemicals must react with a peptide/protein in order to be immunogenic.
A peptide reactivity assay (A. Natsch, H. Gfeller, Toxicol. Sci 2008, 106, 464-478) was conducted similarly to the DPRA assay: The test chemicals were dissolved to a final concentration of 4 mM in acetonitrile and 250 μl of this solution were added to 2 ml HPLC vials. The test peptide Cor1C-420 with the sequence Ac-NKKCDLF (Genscript Inc., Piscataway, N.J., USA), was dissolved at 0.133 mM in 20 mM phosphate buffer at pH 7.5, and 750 μl of this solution were added to each test vial (final concentrations: 1 mM of test chemical and 0.1 mM of peptide in 25% acetonitrile; ratio 1:10 as in the DPRA assay). The samples were incubated for 1-24 h at 37° C. and at regular intervals they were analysed by LC-MS analysis on a VELOS PRO Mass spectrometer (Thermo […], San Jose, Calif., U.S.A.) operated in the ESl(+) mode. The temperature of the capillary was kept at 275° C. Mass spectra were recorded from 200-2000 amu. […]
Two endpoints are measured with this assay: • a) Depletion of the parent peptide. The mass of the protonated parent peptide is measured and the corresponding peak integrated (% depletion; FIG. 2). […]

[3] = system: KeratinoSens cells; test: KeratinoSens assay: cytotoxicity / cellular viability; conditions: 48 h
Experimental: KeratinoSens cells were grown for 24 h in 96-well plates. The medium was then replaced with medium containing the test chemical and the solvent dimethylsulfoxide (DMSO) at a final level of 1%. Each compound was tested at 12 binary dilutions in the range from 0.98 to 2000 μM. Cells were incubated for 48 h with the test agents, and then luciferase activity and cytotoxicity were determined. This full procedure was repeated three times for each chemical.
as §3

[4] = system: Luciferase gene under the control of the ARE-element of the gene AKR1C2 (KeratinoSens cell line)
Experimental: as §1, §2, §3

C/C=C(\C)C(=O)[C@@H]1[C@@H](C)C=CCC1(C)C (relative stereo) [Example 1, (2E,1′R*,2′S*)-2-Methyl-(2′,6′,6′-trimethylcyclohex-3′-en-1′-yl)but-2-en-1-one]
sensitization rating by the KeratinoSens assay [1]: non-sensitizing | induction of luciferase activity above the 1.5-fold threshold ([1]; KeratinoSens): did not induce luciferase activity above the 1.5-fold threshold | Concentration for 1.5-fold gene induction (EC 1.5 in μM) ([1]; KeratinoSens): n.i. | Imax (fold maximal gene induction) ([1]; KeratinoSens): 1.09 fold | levels of peptide adducts, fold lower as compared to Damascone delta ([2]; after 1 h): 3200 fold | peptide depletion ([2]; over the 24 h experiment): no significant peptide depletion | Concentration for 50% Cytotoxicity [3]: 90.3 µM

CC=C(C)C(=O)C1CCC=CC1C (stereo not drawn) [Example 8, (2E,1′R*,2′R*)-2-Methyl-1-(2′-methylcyclohex-3′-en-1′-yl)but-2-en-1-one]
Concentration for 1.5-fold gene induction (EC 1.5 in μM) ([1]; KeratinoSens): n.i. | Imax (fold maximal gene induction) ([1]; KeratinoSens): 1.35 fold | Concentration for 50% Cytotoxicity [3]: 316.4 µM

C/C=C/C(=O)C1C(C)C=CCC1(C)C (stereo not shown) [Damascone delta™, (2E)-1-(2′,6′,6′-trimethylcyclohex-3′-en-1′-yl)but-2-en-1-one]
concentration at which the luciferase gene is clearly induced [4]: 4 µM | maximal gene induction over control [4]: 8.7 fold | sensitization rating by the KeratinoSens assay [4]: significantly sensitizing compound
